Results on nine molecules are retold here after PubChem BioAssay (NCI).

Among the test systems are COLO 205 colon; HOP-62 NSCLC; SW-620 colon; 786-0 renal; RXF 393 renal; MALME-3M melanoma; M14 melanoma; U251 CNS; HT29 colon; HCT-116 colon; EKVX NSCLC; SK-MEL-28 melanoma; SF-539 CNS; OVCAR-3 ovarian; SF-268 CNS; MDA-N; K-562 leukemia.
Holding throughout (assay): growth of human tumour cells (NCI), 48 h

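Results reflect a 48-hour exposure of cells in 96-well plates to compound at five concentrations. At the TGI there is no net growth.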

For `CC1=C(O)C(=O)C[C@]2(C)[C@H]3CC=C4[C@@H]5CC(C)(C)CC[C@@H]5C(=O)[C@H](O)[C@@]4(C)[C@]3(C)CC[C@@H]12`, the TGI with COLO 205 colon is over 50 µM; with HOP-62 NSCLC, over 50 µM; in the test with SW-620 colon, over 50 µM; in the test on 786-0 renal, over 50 µM; with RXF 393 renal it was 37.9 µM; in the test on MALME-3M melanoma it was over 50 µM. Moreover, the TGI in the test with M14 melanoma, with U251 CNS, in the test with HT29 colon, in the test on HCT-116 colon, with EKVX NSCLC and with SK-MEL-28 melanoma was over 50 µM each time. Besides, the TGI in the test with SF-539 CNS, with OVCAR-3 ovarian, in the test on SF-268 CNS and in the test on MDA-N was over 50 µM in each case.
Take `CCOC(=O)c1sc2nc(SC)nc3c2c1NCN3c1ccc2c(c1)OCCCO2`: the TGI with K-562 leukemia was over 100 µM; in the test on HOP-62 NSCLC, over 100 µM; in the test on SW-620 colon, over 100 µM; in the test on 786-0 renal, 26.8 µM; in the test with RXF 393 renal, 35.6 µM; in the test on MALME-3M melanoma, over 100 µM. Also, the TGI was over 100 µM with M14 melanoma; 57.7 µM with U251 CNS; over 100 µM in the test on HCT-116 colon; over 100 µM with EKVX NSCLC; over 100 µM with SK-MEL-28 melanoma; 53.9 µM with SF-539 CNS. In addition, the figures for the TGI with OVCAR-3 ovarian, with SF-268 CNS and with MDA-N were 93.9 µM, over 100 µM and over 100 µM, respectively.
As for `CC(C)C1OC2(C)OC(=N)C1(C#N)C(C#N)(C#N)C2C` (stereo not drawn), the TGI in the test with K-562 leukemia was over 100 µM; with COLO 205 colon, 27.6 µM; with SW-620 colon, 80.5 µM; in the test with 786-0 renal, 51.7 µM; in the test on RXF 393 renal, over 100 µM; in the test on MALME-3M melanoma, 57.8 µM. Besides, the TGI was 30.5 µM in the test with M14 melanoma; 65.7 µM in the test with U251 CNS; 41 µM with HT29 colon; 78.2 µM with HCT-116 colon; 53.4 µM in the test with EKVX NSCLC; over 100 µM with SK-MEL-28 melanoma. Moreover, the TGI in the test on SF-539 CNS amounted to 66 µM; in the test with OVCAR-3 ovarian, 33.4 µM; with SF-268 CNS, 56.4 µM; with MDA-N it was 29.8 µM.
As to `COc1ccc(C2C3CCc4ccccc4C3=NN2S(=O)(=O)c2ccc(Cl)cc2)cc1` (stereo not drawn), the TGI with K-562 leukemia was 41.8 µM; with COLO 205 colon, 23.1 µM; in the test on HOP-62 NSCLC, over 100 µM; in the test on SW-620 colon it was over 100 µM; in the test on 786-0 renal, 66.6 µM; in the test on RXF 393 renal, 58.4 µM. The TGI in the test with MALME-3M melanoma is over 100 µM; with M14 melanoma it was over 100 µM; in the test with U251 CNS it was 60.8 µM; with HT29 colon it was 63.3 µM; in the test on HCT-116 colon it was over 100 µM; in the test on EKVX NSCLC, over 100 µM. For the same molecule, the TGI in the test on SF-539 CNS was 39.1 µM; in the test on OVCAR-3 ovarian it was over 100 µM; in the test with SF-268 CNS, over 100 µM; with MDA-N it was 9.19 µM.
In the case of `C=C1CCC2CC1[C@@H](C(=O)c1c[nH]c3ccccc13)NC2(C)C` (stereo partly drawn), the TGI in the test with K-562 leukemia, in the test on COLO 205 colon, in the test with HOP-62 NSCLC, in the test with SW-620 colon, in the test on 786-0 renal and with RXF 393 renal was over 37.5 µM each time. Further, the TGI in the test on MALME-3M melanoma, in the test with U251 CNS, with HT29 colon, with HCT-116 colon, in the test on EKVX NSCLC and in the test with SK-MEL-28 melanoma was over 37.5 µM each time. Moreover, the TGI in the test on SF-539 CNS, in the test with OVCAR-3 ovarian, in the test with SF-268 CNS and with MDA-N was over 37.5 µM in each case.
For the molecule `c1ccc(-c2cs[s+]c2)cc1`, the TGI in the test with K-562 leukemia, in the test on COLO 205 colon, in the test with HOP-62 NSCLC, with SW-620 colon, in the test on 786-0 renal and in the test with RXF 393 renal was over 100 µM in each case. The TGI with MALME-3M melanoma, in the test with M14 melanoma, in the test on U251 CNS, in the test on HT29 colon, with HCT-116 colon and with EKVX NSCLC was over 100 µM in each case. Besides, the TGI in the test on SK-MEL-28 melanoma, with OVCAR-3 ovarian, in the test with SF-268 CNS and in the test on MDA-N was over 100 µM each time.
For `CN1CCN(c2cc3c(cc2F)c(=O)c(C(=O)O)cn3C2CC2)CC1CC#N` (stereo not drawn), the TGI in the test on K-562 leukemia, in the test on COLO 205 colon, in the test on HOP-62 NSCLC, in the test on SW-620 colon, in the test on 786-0 renal and with RXF 393 renal was over 100 µM in each case. For the same molecule, the TGI with MALME-3M melanoma, in the test with U251 CNS, with HT29 colon, in the test with HCT-116 colon, with EKVX NSCLC and with SK-MEL-28 melanoma was over 100 µM in each case. Further, the TGI in the test on SF-539 CNS, in the test on OVCAR-3 ovarian, with SF-268 CNS and with MDA-N was over 100 µM in each case.
For the molecule `C=CCOc1ccc(/C(N=Nc2ccccc2)=N/NC(=O)c2ccccc2)cc1OC`, the TGI in the test with COLO 205 colon, in the test on HOP-62 NSCLC, in the test with SW-620 colon, with 786-0 renal, in the test on RXF 393 renal and in the test on MALME-3M melanoma was over 100 µM throughout. The TGI with M14 melanoma, with U251 CNS, in the test with HT29 colon, in the test on HCT-116 colon, in the test on EKVX NSCLC and in the test with SK-MEL-28 melanoma was over 100 µM each time. The TGI in the test on SF-539 CNS, in the test on OVCAR-3 ovarian, with SF-268 CNS and in the test with MDA-N was over 100 µM throughout.
On to `CCN1CN(c2ccccc2)C2(CCN(CCCSc3ccc(F)cc3)CC2)C1=O`, for which the TGI with K-562 leukemia is 37.1 µM; in the test on COLO 205 colon it was 6.48 µM; in the test with HOP-62 NSCLC, 12.6 µM; with SW-620 colon it was 26.1 µM; with 786-0 renal, 26.6 µM; with RXF 393 renal it was 25.7 µM. The TGI in the test on MALME-3M melanoma came to 36.1 µM; with M14 melanoma, 21.6 µM; with HT29 colon, 13.3 µM; with HCT-116 colon, 14.9 µM; in the test on EKVX NSCLC, 21.2 µM; with SK-MEL-28 melanoma, 31 µM. In addition, the TGI with SF-539 CNS amounted to 21.5 µM; in the test with OVCAR-3 ovarian, 27.2 µM; with SF-268 CNS, 28.3 µM; in the test on MDA-N it was 26.4 µM.
